US20200378993A1, “MEDICAL USES OF APOLIPOPROTEIN A AND ACTIVATORS THEREOF” (FUNDACIÓN IMDEA ALIMENTACIÓN, priority 2017, published 2020)

Columns and labels:
Format in all cases: cell-based, human
DLD1 cells = assay: Migration assay (Corning BioCoat Control plates); details: RVX-208 30 μm 72 hours then 15 μM
Protocol: Cell viability and proliferation assays were carried out by means of XCELLigence technology (ACEA Biosciences, Inc.) following the manufacturer's indications. Migration and invasion assays were carried out in Corning® BioCoat™ Control plates (#354578) and Corning® BioCoat™ Matrigel plates (#354480), respectively, following the manufacturer's indications. For the rescue assays, the cells were treated for 72 hours with 30 μM apabetalone (RVX-208; Biovision). Antibodies: ABCA1 (Ab18180, Abcam. 1:500); caveolin-1 (Ab2910, Abcam. 1:1000); α-tubulin (T9026, Sigma 1:1000). The DLD1 cells correspond to a human colorectal cancer-derived adherent epithelial cell line (ATCC® CCL-221™). The stable cell lines capable of overexpressing ABCA1 were obtained by means of transduction with genetically modified lentivirus.
Following the same treatment regimen, the inventors carried out migration and invasion assays.
The same assays were repeated by replacing ApoA1 with a treatment with RVX-208. In this case, DLD1 cells were pre-treated for 72 hours before the start of the experiment with RVX-208 at a concentration of 30 μm and were subjected to a treatment with 15 μM of RVX-208 during the development of the experiments.

E-cadherin = assay: Epithelial-mesenchymal transition marker expression by quantitative PCR; details: RVX-208 30 μm 72 hours then 15 μM
Protocol: (§1) FIG. 4. A) Proliferation curve in a viability assay carried out by means of XCELLigence technology. Growth of DLD1 cells treated with DMSO as the drug carrier and with Rvx-208 (30 μM). The significant differences existing in the slope of the graph, and therefore in the growth dynamics of the treated cells are shown in the right panel (**p-value=0.0087). B) Image representing the untreated cell cultures and those treated with Rvx-208. Expression levels of proteins E-cadherin and vimentin in the presence and absence of Rvx-208. Analysis performed by means of quantitative PCR. The relative expression levels normalized with respect to the untreated control are shown. C) Migration and invasion assays in the presence of Rcx-208. FIG. 7. A) Proliferation curve in a viability assay carried out by means of XCELLigence technology. Growth of DLD1 cells treated with DMSO as the drug carrier and with Rvx-208 (30 μM). The significant differences existing in the slope of the graph, and therefore in the growth dynamics of the treated cells are shown in the right panel (****p-value<0.0001). B) Migration and invasion assays. The method followed was the same as the one described in FIG. 2 (*p-value=0.0407; ****p-value<0.0001). C) Expression levels of proteins E-cadherin and Vimentin in the presence and absence of Rvx-208. Analysis performed by means of quantitative PCR. The relative expression levels normalized with respect to the untreated control are shown. D) ABCA1, ApoA1, caveolin-1, and α-tubulin immunodetection by means of Western blot. α-tubulin acts as load control. The results of the cells treated with Rvx-208 (30 μM) or with the DMSO carrier are shown. E) Cholesterol flux in cells treated with Rvx-208. The same assays were repeated by replacing ApoA1 with a treatment with RVX-208. In this case, DLD1 cells were pre-treated for 72 hours before the start of the experiment with RVX-208 at a concentration of 30 μm and were subjected to a treatment with 15 μM of RVX-208 during the development of the experiments. […] The inventors were able to confirm said results based on the treatment of DLD1 cells expressing ABCA1 with RVX-208 under the conditions already described in detail in Example 3. In this case, the DLD1 cells overexpressing ABCA1 were pre-treated for 72 hours before the start of the experiment with RVX-208 at a concentration of 30 μm and were subjected to a treatment with 15 μM of RVX-208 during the development of the experiments. […] The levels of caveolin-1, a protein whose increased levels have been associated with increases in cell migration and invasion, were also analyzed in this experiment.

vimentin = assay: as above; details: RVX-208 30 μm 72 hours then 15 μM
Protocol: as §1

DLD1_ABCA1 cells = assay: Cell viability and proliferation assay (XCELLigence); details: RVX-208 30 μm 72 hours then 15 μM; DLD1 cells overexpressing ABCA1
Protocol: FIG. 6. A) Proliferation curve in a viability assay carried out by means of XCELLigence technology. The results for the stable cell line overexpressing ABCA1 in the absence and presence of ApoA1 are shown. The cells were treated for 72 hours before the experiment with 40 μg/ml of ApoA1 and with a concentration of 20 μg/ml during acquisition. B) Migration and invasion assays. The method followed was the same as the one described in FIG. 1. (**p-value=0.003; ****p-value<0.0001). C) ABCA1 messenger RNA level (left panel) and ABCA1 protein level (right panel) in the presence and absence of treatment with ApoA1. Results are shown both for the control cells and for those cells overexpressing the transporter.
Cell viability and proliferation assays were carried out by means of XCELLigence technology (ACEA Biosciences, Inc.) following the manufacturer's indications. Migration and invasion assays were carried out in Corning® BioCoat™ Control plates (#354578) and Corning® BioCoat™ Matrigel plates (#354480), respectively, following the manufacturer's indications. […]
The inventors were able to confirm said results based on the treatment of DLD1 cells expressing ABCA1 with RVX-208 under the conditions already described in detail in Example 3. […] The levels of caveolin-1, a protein whose increased levels have been associated with increases in cell migration and invasion, were also analyzed in this experiment.

[1] = tested on: DLD1 cells overexpressing ABCA1; assay: Growth of Matrigel-embedded spheroids; details: treatment with Rvx-208; Matrigel-embedded spheroids from DLD1 cells overexpressing ABCA1
Description: FIG. 8: A) Growth of spheroids derived from control cells and cells overexpressing ABCA1. The top panels correspond to the control treatment (carrier), the bottom panels correspond to treatment with Rvx-208. The growth curves represent the mean volume of a total of 30 spheroids per cell line. The inventors were able to confirm said results based on the treatment of DLD1 cells expressing ABCA1 with RVX-208 under the conditions already described in detail in Example 3. In this case, the DLD1 cells overexpressing ABCA1 were pre-treated for 72 hours before the start of the experiment with RVX-208 at a concentration of 30 μm and were subjected to a treatment with 15 μM of RVX-208 during the development of the experiments. […] The levels of caveolin-1, a protein whose increased levels have been associated with increases in cell migration and invasion, were also analyzed in this experiment.

[2] = DLD1 cells overexpressing ABCA1

COc1cc(OC)c2c(=O)[nH]c(-c3cc(C)c(OCCO)c(C)c3)nc2c1 [RVX-208, 2-(4-(2-hydroxyethoxy)-3,5-dimethylphenyl)-5,7-dimethoxyquinazolin-4(3H)-one]
migratory capacity (DLD1 cells): significant decreases the migratory and invasive capacity
E-cadherin expression levels (E-cadherin; DLD1 cells): increase in E-cadherin expression levels
E-cadherin expression levels (E-cadherin; [2]): increase in E-cadherin expression levels
vimentin levels (vimentin; DLD1 cells): decrease in vimentin levels
vimentin levels (vimentin; [2]): decrease in vimentin levels
proliferative capacity (DLD1_ABCA1 cells): significant decrease in proliferative capacity
growth of three-dimensional structures (spheroids) [1]: slows down the growth
